# Measurements as given in ChEMBL document CHEMBL6109114, “Design, synthesis, and biological evaluation of 4-(2-fluorophenoxy)pyridine derivatives as novel FLT3-ITD inhibitors” (Eur J Med Chem, 2025).
# Calls of active or inactive are those of the source. No cut-off for these calls is given here.
# Experiments:
# [1] = target: Mast/stem cell growth factor receptor Kit (Homo sapiens) (UniProt P10721); test: Inhibition of human c-Kit assessed as remaining activity at 1 uM by Eurofins-DiscoverX assay relative to control
# BaF3 [2] = test: Antiproliferative activity against mouse BaF3 cells harbouring FLT3-ITD assessed as inhibition of cell growth measured after 3 days by celltiter-glo luminescent cell viability assay; type: functional, cell-based; settings: BaF3, 72 h
# [3] = AUC (0 to infinity) in mouse at 10 mg/kg, po; type: ADME, organism-based; settings: in vivo
# MOLM-13 [4] = test: Induction of apoptosis in human MOLM-13 cells assessed as viable cells at 0.3 uM incubated for 48 hrs by Annexin V-FITC/PI staining based flow cytometry analysis (reference value: 91.9%); type: functional; settings: read-out: Activity
# [5] = Metabolic stability in Sprague-Dawley rat liver microsomes assessed as half life at 1 uM measured up to 60 mins in presence of NADPH regenerating system by LC-MS/MS analysis; type: ADME, Microsome
# [6] = Metabolic stability in Beagle dog liver microsomes assessed as half life at 1 uM measured up to 60 mins in presence of NADPH regenerating system by LC-MS/MS analysis; type: ADME, Canis lupus familiaris, Microsome
# MOLM-13 [7] = test: Induction of apoptosis in human MOLM-13 cells assessed as late apoptotic cells at 0.1 uM incubated for 48 hrs by Annexin V-FITC/PI staining based flow cytometry analysis (reference value: 3.10%); type: functional
# CYP2C19 = CYP2C19 (Homo sapiens, UniProt P33261); test: Inhibition of CYP2C19 in human liver microsomes using S-mephenytoin as substrate at 10 uM incubated for 10 mins in presence of NADPH by LC-MS/MS analysis relative to control; type: ADME, Microsome; settings: probe S-mephenytoin
# [8] = Metabolic stability in Beagle dog liver microsomes assessed as parent compound remaining at 1 uM measured after 60 mins by LC-MS/MS analysis; type: ADME, Canis lupus familiaris, Microsome; settings: read-out: Stability
# [9] = AUC (0 to t) in mouse at 10 mg/kg, po; type: ADME, organism-based; settings: in vivo
# BaF3 [10] = test: Antiproliferative activity against mouse BaF3 cells harbouring FLT3-ITD-D835V mutant assessed as inhibition of cell growth measured after 3 days by celltiter-glo luminescent cell viability assay; type: functional, cell-based; settings: BaF3, 72 h
# MOLM-13 [11] = test: Induction of apoptosis in human MOLM-13 cells incubated for 48 hrs by Annexin V-FITC/PI staining based flow cytometry analysis; type: functional, cell-based; settings: dose 0.1-1 µM
# CYP2D6 = CYP2D6 (Homo sapiens, UniProt P10635); test: Inhibition of CYP2D6 in human liver microsomes using dextromethorphan as substrate at 10 uM incubated for 10 mins in presence of NADPH by LC-MS/MS analysis relative to control; type: ADME, Microsome; settings: probe dextromethorphan
# MOLM-13 [12] = test: Induction of apoptosis in human MOLM-13 cells assessed as late apoptotic cells at 0.3 uM incubated for 48 hrs by Annexin V-FITC/PI staining based flow cytometry analysis (reference value: 3.10%); type: functional
# MOLM-13 [13] = test: Induction of apoptosis in human MOLM-13 cells assessed as viable cells at 1 uM incubated for 48 hrs by Annexin V-FITC/PI staining based flow cytometry analysis (reference value: 91.9%); type: functional; settings: read-out: Activity
# CYP2C9 = CYP2C9 (Homo sapiens, UniProt P11712); test: Inhibition of CYP2C9 in human liver microsomes using diclofenac as substrate at 10 uM incubated for 10 mins in presence of NADPH by LC-MS/MS analysis relative to control; type: ADME, Microsome; settings: probe diclofenac
# MOLM-13 [14] = test: Induction of cell cycle arrest in human MOLM-13 cells assessed as accumulation of cells at G2 phase at 0.3 uM incubated for 48 hrs (reference value: […]); type: functional
# [15] = Metabolic stability in Sprague-Dawley rat liver microsomes assessed as intrinsic clearance at 1 uM measured up to 60 mins in presence of NADPH regenerating system by LC-MS/MS analysis; type: ADME, Microsome; settings: read-out: CLH
# [16] = Metabolic stability in human liver microsomes assessed as parent compound remaining at 1 uM measured after 60 mins by LC-MS/MS analysis; type: ADME, Microsome; settings: read-out: Stability
# [17] = Half life in mouse at 10 mg/kg, po; type: ADME, organism-based; settings: in vivo
# [18] = target: Cyclin-dependent kinase 2/cyclin A (Homo sapiens) (UniProt P24941+P20248+P78396); test: Inhibition of human CDK2/CyclinA at 1 uM by Eurofins-DiscoverX assay; type: protein-complex assay
# MOLM-13 [19] = test: Induction of apoptosis in human MOLM-13 cells assessed as early apoptotic cells at 0.3 uM incubated for 48 hrs by Annexin V-FITC/PI staining based flow cytometry analysis (reference value: 4.93%); type: functional
# MOLM-13 [20] = test: Inhibition of STAT5 phosphorylation in human MOLM-13 cells measured after 2 hrs by Western blot analysis; type: cell-based; settings: dose 0.01-1 µM
# [21] = target: Cyclin-dependent kinase 1/cyclin B1 (Homo sapiens) (UniProt P06493+P14635); test: Inhibition of human CDK1/CyclinB1 assessed as remaining activity at 1 uM by Eurofins-DiscoverX assay relative to control; type: protein-complex assay
# [22] = target: CDK3/Cyclin E (Homo sapiens) (UniProt P24864+Q00526); test: Inhibition of human CDK3/CyclinE assessed as remaining activity at 1 uM by Eurofins-DiscoverX assay relative to control; type: protein-complex assay
# HL-60 = test: Antiproliferative activity against human HL-60 cells harbouring wild type FLT3 assessed as inhibition of cell growth measured after 3 days by celltiter-glo luminescent cell viability assay; type: functional, cell-based; settings: HL-60, 72 h
# BaF3 [23] = test: Antiproliferative activity against mouse BaF3 cells harbouring VEGFR2 assessed as inhibition of cell growth measured after 3 days by celltiter-glo luminescent cell viability assay; type: functional, cell-based; settings: BaF3, 72 h
# [24] = AUC (0 to t) in mouse at 5 mg/kg, iv; type: ADME, organism-based; settings: in vivo
# MOLM-13 [25] = test: Induction of cell cycle arrest in human MOLM-13 cells assessed as accumulation of cells at S phase at 0.1 uM incubated for 48 hrs (reference value: 41.6%); type: functional
# [26] = target: CDK4/Cyclin D3 (Homo sapiens) (UniProt P11802+P30281); test: Inhibition of human CDK4/cyclinD3 assessed as remaining activity at 1 uM by Eurofins-DiscoverX assay relative to control; type: protein-complex assay
# [27] = target: Vascular endothelial growth factor receptor 2 (Homo sapiens, UniProt P35968); test: Inhibition of VEGFR2 (unknown origin) using Fluorescein-Poly GT as substrate preincubated for 10 mins followed by substrate addition and measured after 30 mins in presence of ATP by mobility shift assay
# A549 = test: Antiproliferative activity against non-FLT3 expressing human A549 cells assessed as inhibition of cell growth measured after 3 days by celltiter-glo luminescent cell viability assay; type: functional, cell-based; settings: A549, 72 h
# [28] = target: Vascular endothelial growth factor receptor 1 (Homo sapiens, UniProt P17948); test: Inhibition of FLT1 (unknown origin) using Fluorescein-Poly GT as substrate preincubated for 10 mins followed by substrate addition and measured after 30 mins in presence of ATP by mobility shift assay
# [29] = Volume of distribution in mouse at 5 mg/kg, iv; type: ADME, organism-based; settings: in vivo
# [30] = Metabolic stability in human liver microsomes assessed as parent compound remaining at 1 uM measured after 60 mins in presence of NADPH regenerating system by LC-MS/MS analysis; type: ADME, Microsome; settings: read-out: Stability
# Sequence of Vascular endothelial growth factor receptor 2 (P35968 whole entry): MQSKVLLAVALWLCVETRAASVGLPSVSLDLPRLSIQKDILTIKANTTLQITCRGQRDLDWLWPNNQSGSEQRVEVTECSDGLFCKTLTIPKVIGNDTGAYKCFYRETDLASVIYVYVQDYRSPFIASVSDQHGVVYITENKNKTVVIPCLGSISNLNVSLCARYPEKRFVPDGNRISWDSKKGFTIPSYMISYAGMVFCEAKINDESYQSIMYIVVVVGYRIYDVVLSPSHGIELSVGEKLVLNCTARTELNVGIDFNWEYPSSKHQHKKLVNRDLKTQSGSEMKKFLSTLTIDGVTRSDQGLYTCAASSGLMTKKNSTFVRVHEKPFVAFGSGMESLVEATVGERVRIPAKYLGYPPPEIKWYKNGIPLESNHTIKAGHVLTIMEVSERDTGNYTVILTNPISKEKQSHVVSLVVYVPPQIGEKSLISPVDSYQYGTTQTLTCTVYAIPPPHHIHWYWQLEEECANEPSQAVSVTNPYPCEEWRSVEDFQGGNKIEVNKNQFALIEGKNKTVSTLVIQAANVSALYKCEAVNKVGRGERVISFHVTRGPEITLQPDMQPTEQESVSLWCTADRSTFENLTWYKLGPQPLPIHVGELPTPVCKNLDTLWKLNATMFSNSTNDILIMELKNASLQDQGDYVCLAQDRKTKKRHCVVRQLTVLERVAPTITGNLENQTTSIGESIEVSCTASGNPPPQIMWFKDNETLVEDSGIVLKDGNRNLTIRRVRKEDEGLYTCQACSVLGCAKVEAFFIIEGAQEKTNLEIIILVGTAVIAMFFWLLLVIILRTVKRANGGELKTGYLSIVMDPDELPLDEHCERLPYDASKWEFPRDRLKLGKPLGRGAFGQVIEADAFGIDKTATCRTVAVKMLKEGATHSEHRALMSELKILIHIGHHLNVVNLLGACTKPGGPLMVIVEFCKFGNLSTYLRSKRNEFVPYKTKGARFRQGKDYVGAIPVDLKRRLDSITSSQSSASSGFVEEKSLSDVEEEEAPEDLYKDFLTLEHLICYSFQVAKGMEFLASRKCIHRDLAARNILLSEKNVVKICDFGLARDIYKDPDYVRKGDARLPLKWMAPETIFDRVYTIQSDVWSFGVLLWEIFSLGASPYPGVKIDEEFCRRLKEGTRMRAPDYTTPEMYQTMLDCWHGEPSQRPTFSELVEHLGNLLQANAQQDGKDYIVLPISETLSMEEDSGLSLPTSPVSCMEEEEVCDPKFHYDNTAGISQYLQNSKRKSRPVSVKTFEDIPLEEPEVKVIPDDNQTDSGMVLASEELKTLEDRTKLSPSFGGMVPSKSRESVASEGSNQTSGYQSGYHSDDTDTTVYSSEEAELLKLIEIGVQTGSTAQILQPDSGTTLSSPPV
# Sequence of CYP2D6 (P10635 whole entry): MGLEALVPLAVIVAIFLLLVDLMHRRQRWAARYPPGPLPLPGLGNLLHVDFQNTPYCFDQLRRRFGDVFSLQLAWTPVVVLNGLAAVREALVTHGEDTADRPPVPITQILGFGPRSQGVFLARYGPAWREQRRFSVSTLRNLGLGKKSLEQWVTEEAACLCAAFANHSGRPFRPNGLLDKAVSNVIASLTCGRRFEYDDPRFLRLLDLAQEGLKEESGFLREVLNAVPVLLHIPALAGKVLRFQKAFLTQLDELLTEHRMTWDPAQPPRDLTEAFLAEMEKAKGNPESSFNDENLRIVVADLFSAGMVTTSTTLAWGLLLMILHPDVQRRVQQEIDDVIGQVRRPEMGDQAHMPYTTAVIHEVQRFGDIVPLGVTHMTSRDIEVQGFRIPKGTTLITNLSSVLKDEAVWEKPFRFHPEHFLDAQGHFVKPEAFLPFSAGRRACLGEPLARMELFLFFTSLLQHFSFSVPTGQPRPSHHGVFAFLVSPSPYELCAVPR
# Sequence of Vascular endothelial growth factor receptor 1 (P17948 whole entry): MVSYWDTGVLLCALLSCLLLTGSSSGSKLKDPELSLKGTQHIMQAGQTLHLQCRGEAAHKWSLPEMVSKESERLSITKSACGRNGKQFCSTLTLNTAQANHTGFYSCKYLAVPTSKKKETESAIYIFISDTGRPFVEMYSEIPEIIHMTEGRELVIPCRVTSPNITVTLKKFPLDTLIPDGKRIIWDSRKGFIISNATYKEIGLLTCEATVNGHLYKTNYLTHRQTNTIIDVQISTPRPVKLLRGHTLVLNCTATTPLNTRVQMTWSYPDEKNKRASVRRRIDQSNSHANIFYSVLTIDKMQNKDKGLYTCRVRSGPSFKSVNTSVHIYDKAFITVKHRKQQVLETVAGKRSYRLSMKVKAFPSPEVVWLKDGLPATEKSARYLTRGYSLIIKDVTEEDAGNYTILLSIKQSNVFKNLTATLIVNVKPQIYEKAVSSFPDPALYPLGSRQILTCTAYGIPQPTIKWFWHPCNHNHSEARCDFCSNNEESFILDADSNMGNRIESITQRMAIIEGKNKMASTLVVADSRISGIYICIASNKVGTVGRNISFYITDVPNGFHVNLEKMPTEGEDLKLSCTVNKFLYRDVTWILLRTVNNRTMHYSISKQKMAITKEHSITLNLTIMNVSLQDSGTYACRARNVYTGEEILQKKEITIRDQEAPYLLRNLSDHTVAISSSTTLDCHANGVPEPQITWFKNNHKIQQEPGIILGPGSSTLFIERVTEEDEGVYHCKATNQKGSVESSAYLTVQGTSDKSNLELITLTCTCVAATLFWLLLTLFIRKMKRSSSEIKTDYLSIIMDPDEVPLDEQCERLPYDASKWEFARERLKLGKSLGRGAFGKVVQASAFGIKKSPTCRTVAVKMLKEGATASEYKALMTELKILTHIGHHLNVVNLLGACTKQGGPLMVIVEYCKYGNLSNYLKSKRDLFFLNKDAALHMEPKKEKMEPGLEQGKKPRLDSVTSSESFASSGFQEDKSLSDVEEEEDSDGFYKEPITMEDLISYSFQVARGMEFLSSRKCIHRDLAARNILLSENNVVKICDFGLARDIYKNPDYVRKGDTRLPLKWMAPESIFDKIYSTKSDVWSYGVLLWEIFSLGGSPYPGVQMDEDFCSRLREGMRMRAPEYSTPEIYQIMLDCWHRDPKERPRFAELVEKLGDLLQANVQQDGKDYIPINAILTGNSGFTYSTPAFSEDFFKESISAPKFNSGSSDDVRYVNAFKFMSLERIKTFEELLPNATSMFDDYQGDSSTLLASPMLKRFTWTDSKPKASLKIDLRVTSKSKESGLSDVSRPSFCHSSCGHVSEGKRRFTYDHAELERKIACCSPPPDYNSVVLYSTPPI
# Sequence of CYP2C19 (P33261 whole entry): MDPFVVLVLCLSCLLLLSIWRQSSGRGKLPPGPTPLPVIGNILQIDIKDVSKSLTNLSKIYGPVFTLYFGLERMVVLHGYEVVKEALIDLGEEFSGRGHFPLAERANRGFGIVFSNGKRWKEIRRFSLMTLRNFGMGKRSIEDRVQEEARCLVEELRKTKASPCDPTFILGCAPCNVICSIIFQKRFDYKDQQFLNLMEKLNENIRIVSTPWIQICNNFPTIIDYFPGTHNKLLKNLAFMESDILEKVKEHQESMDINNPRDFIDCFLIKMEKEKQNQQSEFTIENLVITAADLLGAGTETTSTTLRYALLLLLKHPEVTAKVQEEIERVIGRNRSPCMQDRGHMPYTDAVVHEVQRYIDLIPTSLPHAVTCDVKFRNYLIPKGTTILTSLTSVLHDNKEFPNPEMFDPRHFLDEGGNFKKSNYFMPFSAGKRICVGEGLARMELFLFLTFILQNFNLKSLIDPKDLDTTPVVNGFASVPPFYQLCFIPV
# Sequence of Mast/stem cell growth factor receptor Kit (Homo sapiens) (P10721 whole entry): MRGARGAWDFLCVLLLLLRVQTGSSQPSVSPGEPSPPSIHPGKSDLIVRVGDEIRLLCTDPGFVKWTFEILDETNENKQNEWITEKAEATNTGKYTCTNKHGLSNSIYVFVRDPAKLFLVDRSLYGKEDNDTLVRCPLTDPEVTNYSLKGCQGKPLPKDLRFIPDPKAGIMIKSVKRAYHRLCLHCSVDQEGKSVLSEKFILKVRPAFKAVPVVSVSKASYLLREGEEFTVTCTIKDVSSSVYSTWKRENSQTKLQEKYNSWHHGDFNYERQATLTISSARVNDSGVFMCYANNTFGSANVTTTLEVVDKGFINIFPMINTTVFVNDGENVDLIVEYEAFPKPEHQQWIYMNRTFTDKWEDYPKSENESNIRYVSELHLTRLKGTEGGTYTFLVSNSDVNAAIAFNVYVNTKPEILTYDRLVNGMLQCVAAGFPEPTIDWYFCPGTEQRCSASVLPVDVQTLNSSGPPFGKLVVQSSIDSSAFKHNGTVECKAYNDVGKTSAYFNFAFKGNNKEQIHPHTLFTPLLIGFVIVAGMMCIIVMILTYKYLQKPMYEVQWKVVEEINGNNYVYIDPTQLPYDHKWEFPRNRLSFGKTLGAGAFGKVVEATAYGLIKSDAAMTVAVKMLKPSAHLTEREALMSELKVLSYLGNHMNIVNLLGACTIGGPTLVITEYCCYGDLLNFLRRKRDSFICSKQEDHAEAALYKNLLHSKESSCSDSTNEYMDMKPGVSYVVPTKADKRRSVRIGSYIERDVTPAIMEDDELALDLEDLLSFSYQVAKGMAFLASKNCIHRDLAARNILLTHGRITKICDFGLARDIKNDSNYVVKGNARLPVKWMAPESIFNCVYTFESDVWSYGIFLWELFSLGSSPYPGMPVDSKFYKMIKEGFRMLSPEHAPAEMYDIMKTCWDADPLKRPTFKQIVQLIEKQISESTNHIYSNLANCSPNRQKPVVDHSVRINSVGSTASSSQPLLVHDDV
smiles,measurement,setting,value
Cc1cc(=O)n(-c2cc(Cl)ccc2F)nc1C(=O)Nc1ccc(Oc2ccnc(NC(=O)N3CC(O)C3)c2)c(F)c1,Activity,[1],88%
same,IC50,BaF3 [2],190 nM
same,AUC(0-inf),[3],1430 ng·h/mL
same,viability at 0.3 µM,MOLM-13 [4],74.2%
same,half-life at 1 µM,[5],1.95 h
same,half-life at 1 µM,[6],2.1 h
same,Activity,MOLM-13 [7],3.37%
same,"inhibition at 10 min, 10 µM",CYP2C19,36.9%
same,"remaining at 1 h, 1 µM",[8],103%
same,AUC(0-t),[9],1400 ng·h/mL
same,IC50,BaF3 [10],7800 nM
same,Activity,MOLM-13 [11],Dose-dependent-effect
same,"inhibition at 10 min, 10 µM",CYP2D6,19.8%
same,Activity,MOLM-13 [12],12.3%
same,viability at 1 µM,MOLM-13 [13],33.5%
same,"inhibition at 10 min, 10 µM",CYP2C9,25.6%
same,Activity,MOLM-13 [14],8.51%
same,microsomal CLint at 1 µM,[15],11.8 µL/min/mg
same,"remaining at 1 h, 1 µM",[16],99.6%
same,half-life,[17],1.83 h
same,inhibition,[18],inactive
same,Activity,MOLM-13 [19],13.4%
same,inhibition,MOLM-13 [20],Dose-dependent-effect
same,Activity,[21],88%
same,Activity,[22],88%
same,IC50,HL-60,18900 nM
same,IC50,BaF3 [23],310 nM
same,AUC(0-t),[24],2030 ng·h/mL
same,Activity,MOLM-13 [25],40.5%
same,Activity,[26],88%
same,IC50,[27],131 nM
same,IC50,A549,> 30000 nM
same,IC50,[28],348 nM
same,Vd,[29],20.9 L/kg
same,"remaining at 1 h, 1 µM",[30],66.3%
